The source made the active and inactive calls.
Key:
[1] = Trypanosoma cruzi growth suppression in host cells – NIH3T3 host cells, beta-gal luminescence, confirmation (AID 2044); type: functional, cell-based;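 further: intracellular parasites grown in NIH/3T3 mouse fibroblasts as host cells; luminescent beta-galactosidase reporter signal from transgenic T. cruzi replicating inside host cells; inhibitors lower the luminescence signal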
[2] = NIH3T3 cell viability loss – ATP luminescence, mouse fibroblasts, counter-screen, dose response (AID 2010); type: functional, cell-based;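 further: cells exposed to compound for about 90 hours before reading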
[3] = Luminescence Cell-Based Dose Response HTS to Identify Activators of Luciferase Translation or Activity in H4 […] Cells. [Related pubchem assays: 1829 (Project Summary), 1814 (Primary HTS)]; type: functional
H4 = test: Luminescence Cell-Based Dose Response HTS to Identify Activators of 5'UTR Stem-Loop Driven Prion Protein mRNA Translation in H4 Neuroglioblastoma Cells. [Related pubchem assays: 1829 (Project Summary), 1814 (Primary HTS)]; type: functional; conditions: Homo sapiens
[4] = test system: Streptococcus sp. 'group A'; test: Streptococcus pyogenes SK(-)GAS viability under kanamycin – luminescence, BacTiterGlo, confirmation, counter-screen for streptokinase expression inhibitor project, dose response (AID 1900); type: functional, organism-based
Streptokinase A = target: T1, Streptokinase A (Streptococcus pyogenes serotype M1, UniProt P10520); test: viability-normalized secreted streptokinase activity reduction – plasminogen activation absorbance, OD405, dose response (AID 1914); type: functional, Streptococcus pyogenes M1 GAS;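 further: secreted streptokinase activity via plasminogen activation per viability signal from cell pellet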
T1 sequence (P10520 whole entry): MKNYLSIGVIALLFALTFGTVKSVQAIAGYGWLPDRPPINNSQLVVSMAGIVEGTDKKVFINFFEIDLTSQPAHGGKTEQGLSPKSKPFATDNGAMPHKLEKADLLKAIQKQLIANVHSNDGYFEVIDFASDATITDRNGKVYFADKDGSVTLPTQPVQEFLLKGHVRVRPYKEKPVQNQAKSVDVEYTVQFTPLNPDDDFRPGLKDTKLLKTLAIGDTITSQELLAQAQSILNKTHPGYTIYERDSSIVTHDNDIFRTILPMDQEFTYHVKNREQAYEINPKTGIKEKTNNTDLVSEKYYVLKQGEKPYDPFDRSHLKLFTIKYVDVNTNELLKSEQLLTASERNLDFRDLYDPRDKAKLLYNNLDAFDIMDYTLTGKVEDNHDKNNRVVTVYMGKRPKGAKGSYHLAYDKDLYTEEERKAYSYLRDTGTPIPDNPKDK

Streptococcus = test: GAS UMAA2166 growth inhibition – luminescence, BacTiterGlo, counter-screen for streptokinase expression inhibitor project, dose response (AID 1915); type: functional, organism-based;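 further: potency for reduction of bacterial viability or growth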
Cytochrome P450 2D6 = Cytochrome P450 2D6 (Homo sapiens, UniProt P10635);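 further: CYP2D6 member of a cytochrome P450 panel assay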
Cytochrome P450 3A4 = Cytochrome P450 3A4 (Homo sapiens, UniProt P08684);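 further: CYP3A4 tested as one member of a cytochrome P450 panel screen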
Cytochrome P450 2C19 = Cytochrome P450 2C19 (Homo sapiens, UniProt P33261); test: Cytochrome panel assay with activity outcomes. Panel member name: p450-cyp2c19 Compounds with AC50 equal or less than 10 uM are considered active; type: functional
Sequence of Cytochrome P450 2C19 (P33261 whole entry): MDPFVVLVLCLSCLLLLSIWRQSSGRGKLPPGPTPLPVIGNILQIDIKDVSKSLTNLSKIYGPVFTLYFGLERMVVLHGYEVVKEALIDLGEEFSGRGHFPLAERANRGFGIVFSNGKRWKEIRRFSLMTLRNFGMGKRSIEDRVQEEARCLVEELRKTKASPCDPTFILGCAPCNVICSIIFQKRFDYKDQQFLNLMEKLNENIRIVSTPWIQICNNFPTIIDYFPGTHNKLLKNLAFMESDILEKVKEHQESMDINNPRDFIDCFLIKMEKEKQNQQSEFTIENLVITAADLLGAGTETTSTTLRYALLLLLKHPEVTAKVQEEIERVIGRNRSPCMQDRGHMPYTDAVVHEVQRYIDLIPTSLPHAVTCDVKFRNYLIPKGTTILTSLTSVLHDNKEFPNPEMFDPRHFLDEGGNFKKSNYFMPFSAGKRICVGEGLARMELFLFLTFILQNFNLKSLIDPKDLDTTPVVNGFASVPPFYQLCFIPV

Sequence of Cytochrome P450 3A4 (P08684 whole entry): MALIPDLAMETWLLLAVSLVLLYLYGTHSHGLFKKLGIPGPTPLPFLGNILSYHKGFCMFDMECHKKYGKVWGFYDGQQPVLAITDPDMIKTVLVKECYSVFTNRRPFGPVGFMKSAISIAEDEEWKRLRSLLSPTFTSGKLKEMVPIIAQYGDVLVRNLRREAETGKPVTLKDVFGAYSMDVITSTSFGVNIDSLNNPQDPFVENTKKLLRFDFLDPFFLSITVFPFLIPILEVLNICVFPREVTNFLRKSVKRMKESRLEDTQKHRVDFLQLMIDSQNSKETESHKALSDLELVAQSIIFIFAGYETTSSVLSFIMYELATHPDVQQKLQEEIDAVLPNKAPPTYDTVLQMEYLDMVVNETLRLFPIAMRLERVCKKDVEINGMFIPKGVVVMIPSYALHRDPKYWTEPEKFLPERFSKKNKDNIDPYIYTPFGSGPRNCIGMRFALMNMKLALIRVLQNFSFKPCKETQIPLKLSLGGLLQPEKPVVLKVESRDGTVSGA
Sequence of Cytochrome P450 2D6 (P10635 whole entry): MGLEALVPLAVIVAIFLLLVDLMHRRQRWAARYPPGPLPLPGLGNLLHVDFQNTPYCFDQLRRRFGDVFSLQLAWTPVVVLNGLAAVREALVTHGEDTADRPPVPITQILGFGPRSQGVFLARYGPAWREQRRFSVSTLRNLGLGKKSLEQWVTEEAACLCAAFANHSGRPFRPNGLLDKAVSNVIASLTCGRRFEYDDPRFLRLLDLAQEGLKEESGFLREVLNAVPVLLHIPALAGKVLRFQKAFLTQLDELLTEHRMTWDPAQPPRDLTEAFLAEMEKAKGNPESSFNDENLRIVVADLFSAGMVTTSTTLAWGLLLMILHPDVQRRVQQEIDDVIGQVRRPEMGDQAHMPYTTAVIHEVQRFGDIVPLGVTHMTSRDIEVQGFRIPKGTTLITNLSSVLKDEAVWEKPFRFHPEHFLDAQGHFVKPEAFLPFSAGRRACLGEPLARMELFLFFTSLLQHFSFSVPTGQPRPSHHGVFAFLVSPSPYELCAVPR

Cc1cc2nc(CCN(Cc3cccnc3)C(S)=Nc3ccc(F)cc3)[nH]c2cc1C
EC50 [1]: 0.844 µM (active)
EC50 [2]: > 30 µM (not active)

Cc1ccc(-c2onc3ccc(C4OCCO4)cc23)cc1
EC50 [3]: 28.4 µM (active)
EC50 (H4): 25 µM (active)

O=C(CSc1cccc[n+]1[O-])c1cc2ccccc2o1
EC50 [1]: 11.3 µM (active)
EC50 [2]: > 60 µM (not active)

O=C(NC(=S)Nc1ccc(N2CCOCC2)c(Cl)c1)c1cccs1
EC50 [4]: 11 µM (active)
EC50 (Streptokinase A): > 150 µM (not active)
EC50 (Streptococcus): 15.8 µM (active)

O=C(CCc1nnc(CCCCc2ccccc2)o1)NCCc1cccnc1
EC50 [1]: 2.27 µM (active)
EC50 [2]: > 60 µM (not active)

CCN1CCN(c2ccc(S(=O)(=O)N3CCOCC3)cc2NC(=O)c2ccc(Cl)s2)CC1
EC50 [1]: 0.588 µM (active)
EC50 [2]: > 30 µM (not active)

Oc1ccc(Cc2cc(Cl)cc(Cl)c2O)cc1Cl
AC50 (Cytochrome P450 2D6): 7.94 µM (inconclusive)
AC50 (Cytochrome P450 3A4): 3.98 µM (inconclusive)

Cc1ccc(C(=O)N(C)c2ccc(OCC(=O)N3c4ccc(C)cc4C4CN(C)CCC43)cc2)cc1 (stereo not given)
EC50 [1]: 0.527 µM (active)
EC50 [2]: > 60 µM (not active)

COc1ccc(/C=C2\Sc3ccc(C(=O)N4CCCC4)cc3N(C)C2=O)cc1OC
EC50 [4]: 0.555 µM (active)
EC50 (Streptokinase A): > 150 µM (not active)
EC50 (Streptococcus): 8.27 µM (active)

Cc1sc2c(c1C)c(=O)n(-c1ccccc1)c1nnc(C)n21
AC50 (Cytochrome P450 2C19; read-out: AC50): 8.91 µM (inconclusive)

COc1ccc(-c2ccc(C(=S)N3CCN(C(C)=O)CC3)o2)cc1
AC50 (Cytochrome P450 2D6): 28.2 µM (inconclusive)

O=S(=O)(Cc1cc(Sc2ccc(Cl)cc2)nc(-c2ccccc2)n1)c1ccccc1
EC50 [1]: 2.93 µM (active)
EC50 [2]: > 60 µM (not active)

COC(=O)Cc1c[nH]c2cccc(OCC(O)CN(Cc3ccc([N+](=O)[O-])cc3)C(C)(C)C)c12 (stereo not given)
EC50 [1]: 2.83 µM (active)
EC50 [2]: > 60 µM (not active)

CNC(=O)c1sc(SC)cc1-c1ccc(Cl)cc1
AC50 (Cytochrome P450 2D6): 25.1 µM (inconclusive)

OC(COCCC12CC3CC(CC(C3)C1)C2)CN1CCCCC1 (stereo not given)
EC50 [1]: 0.228 µM (active)
EC50 [2]: > 60 µM (not active)

COc1ccc(C(=O)NCC(c2ccc(F)cc2)N2CCOCC2)cc1S(=O)(=O)N1CCCC1 (stereo not given)
AC50 (Cytochrome P450 2D6): 15.8 µM (inconclusive)

O=S(=O)(Nc1ccc(N=Nc2ccc(O)c3ccccc23)cc1)c1ccccc1
EC50 [4]: 7.71 µM (active)
EC50 (Streptokinase A): 18.7 µM (active)
EC50 (Streptococcus): 41.5 µM (active)

Cn1c(=O)c(C(=O)NNC(=O)c2ccccc2Br)c(O)c2ccccc21
EC50 [4]: 4.72 µM (active)
EC50 (Streptokinase A): > 150 µM (not active)
EC50 (Streptococcus): 18.7 µM (active)

CCOC(=O)C1CCCN(c2ncnc3c2cnn3-c2cccc(C)c2)C1 (stereo not given)
AC50 (Cytochrome P450 2C19; read-out: AC50): 20 µM (inconclusive)
AC50 (Cytochrome P450 3A4): 28.2 µM (inconclusive)

CCc1ccc(Oc2nc([N+](=O)[O-])nn2C)cc1
EC50 [1]: 0.438 µM (active)
EC50 [2]: > 30 µM (not active)

Cc1[nH]c2ccccc2c1C(=O)CSc1nc2ccccc2c(=O)n1CCCN1CCOCC1
EC50 [3]: > 120 µM (not active)
EC50 (H4): > 120 µM (not active)

CN(Cc1ccccc1)C(=O)C1CCCN(Cc2cccc(Cl)c2)C1 (stereo not given)
EC50 [1]: 0.11 µM (active)
EC50 [2]: > 60 µM (not active)

COC(=O)Cc1c(OC)ccn(CCc2c[nH]c3ccccc23)c1=O
EC50 (H4): > 120 µM (not active)

COCCn1c(=O)c(-c2cccs2)nc2cnc(Oc3ccc(OC)cc3)nc21
AC50 (Cytochrome P450 2C19; read-out: AC50): 15.8 µM (inconclusive)

CC(C)C[C@@H](N)C(=O)Nc1ccc2ccccc2c1
AC50 (Cytochrome P450 2C19; read-out: AC50): 2.51 µM (inconclusive)
AC50 (Cytochrome P450 2D6): 3.16 µM (inconclusive)
AC50 (Cytochrome P450 3A4): 2.51 µM (inconclusive)

CC(CCc1ccccc1)N1CCN(Cc2ccccc2)CC1 (stereo not given)
EC50 [1]: 0.101 µM (active)
EC50 [2]: 10.2 µM (active)

C=CCNC(=O)c1ccccc1NC(=O)c1ccc(Cl)c(S(=O)(=O)Nc2cc(C)ccc2C)c1
EC50 [4]: 24.8 µM (active)
EC50 (Streptokinase A): 41.7 µM (active)
EC50 (Streptococcus): > 150 µM (not active)

c1ccc(COc2ccc(-c3csnn3)cc2)cc1
EC50 [3]: 0.11 µM (active)
EC50 (H4): 1.64 µM (active)

O=c1c(-c2ccc(F)cc2)nc2cnc(N3CCNCC3)nc2n1C1CC1
AC50 (Cytochrome P450 2C19; read-out: AC50): 39.8 µM (inconclusive)

O=c1c(-c2ccc(Cl)cc2)nc2cnc(N3CCNCC3)nc2n1Cc1cccs1
AC50 (Cytochrome P450 2C19; read-out: AC50): 25.1 µM (inconclusive)

C[C@H]1CC[C@@]2(NC1)O[C@@H]1C[C@H]3[C@@H]4CC[C@@H]5C[C@@H](O)CC[C@@]5(C)[C@@H]4CC[C@]3(C)[C@@H]1[C@@H]2C
AC50 (Cytochrome P450 2C19): inconclusive

COc1cc([N+](=O)[O-])c(N2CCOCC2)c([N+](=O)[O-])c1OC
EC50 [1]: 7.53 µM (active)
EC50 [2]: > 60 µM (not active)

Cc1ccc(C(=N)NOC(=O)CSc2ccccc2)cc1
EC50 [3]: 0.514 µM (active)

Cc1ccc(CN(C)CCc2ccccn2)cc1
EC50 [1]: 0.309 µM (active)
EC50 [2]: > 60 µM (not active)

C=C(C)CNC(=S)NNC(=O)CCn1c2ccc(Cl)cc2c2cc(Cl)ccc21
EC50 (Streptokinase A): > 150 µM (not active)

CNc1ncnc2ccc(-c3ccccc3CN(C)C)cc12
AC50 (Cytochrome P450 2C19; read-out: AC50): 20 µM (inconclusive)

CN(C)c1ccc(-c2cncnc2NCc2ccccc2)cc1
AC50 (Cytochrome P450 2D6): 39.8 µM (inconclusive)

COC(=O)C1CCN(CC(=O)Nc2cc(Cl)ccc2OC)CC1
EC50 [1]: 4.18 µM (active)
EC50 [2]: > 30 µM (not active)

COc1ccc(C(CNC(=O)c2cccc(S(=O)(=O)Nc3ccccc3Cl)c2)N2CCOCC2)cc1 (stereo not given)
EC50 (Streptokinase A): > 150 µM (not active)
EC50 (Streptococcus): 104 µM (active)

COCCNc1nc(-c2c(C)noc2C)nc2ccccc12
AC50 (Cytochrome P450 3A4): 15.8 µM (inconclusive)

CCC(C)C(=O)N1CCCC(c2nc(-c3cccs3)no2)C1 (stereo not given)
EC50 [3]: > 120 µM (not active)
EC50 (H4): 71.6 µM (active)

O=[N+]([O-])c1cccc(-c2nc(-c3ccccc3)c(-c3cccs3)[nH]2)c1
AC50 (Cytochrome P450 2D6): 4.47 µM (inconclusive)

c1ccc(COc2ccccc2CNCc2cccnc2)cc1
EC50 [1]: 8.11 µM (active)
EC50 [2]: > 60 µM (not active)

c1ccc(CN2CCN(c3nc4ccccc4c4ccccc34)CC2)cc1
EC50 [4]: 15.9 µM (active)
EC50 (Streptokinase A): 14.9 µM (active)
EC50 (Streptococcus): > 150 µM (not active)

OC(COCC1COc2ccccc2O1)CN1CCc2ccccc2C1 (stereo not given)
AC50 (Cytochrome P450 3A4): 17.8 µM (inconclusive)

CC(C)N1CCc2c(sc(NC(=O)CCS(=O)(=O)c3ccccc3)c2C#N)C1
EC50 [4]: > 150 µM (not active)
EC50 (Streptokinase A): > 150 µM (not active)
EC50 (Streptococcus): > 150 µM (not active)

COc1ccc(-n2c(=O)c(C)nc3cnc(N(C)C)nc32)cc1
AC50 (Cytochrome P450 3A4): 20 µM (inconclusive)

CCOC(=O)CC(NC(=O)c1cccs1)c1ccc(OCC)cc1 (stereo not given)
AC50 (Cytochrome P450 2D6): 14.1 µM (inconclusive)

CC(=O)Nc1ccc(S(=O)(=O)N2CCC(N(C)CCC(C)C)CC2)cc1
AC50 (Cytochrome P450 2C19; read-out: AC50): 25.1 µM (inconclusive)

CN(C)/C=N/c1cnc(C(=O)c2ccc(Cl)cc2)n1C
EC50 (H4): 0.52 µM (active)

CCSC(=N)Nc1ccc(C(F)(F)F)cc1
AC50 (Cytochrome P450 2C19; read-out: AC50): 20 µM (inconclusive)
AC50 (Cytochrome P450 3A4): 39.8 µM (inconclusive)

CCOC(=O)c1c2c(n3ccccc13)C(=O)c1ccccc1C2=O
AC50 (Cytochrome P450 3A4): 3.16 µM (inconclusive)

COc1ccccc1CNc1ncncc1-c1ccc(C(=O)N(C)C)cc1
AC50 (Cytochrome P450 2D6): 39.8 µM (inconclusive)

CCOc1ccc(Nc2nc(N3CCCCC3)nc(N3CCCCC3)n2)cc1
EC50 [4]: 0.648 µM (active)
EC50 (Streptokinase A): > 150 µM (not active)
EC50 (Streptococcus): 54.1 µM (active)
